This note sets out measurements from publication PMC5794780, “ATP-dependent conformational change in ABC-ATPase RecF serves as a switch in DNA repair” (Scientific Reports, 2018).

Data set [1] concerns the target T1, TTERecF (Caldanaerobacter subterraneus, UniProt Q8RDL3, S282A).
T1 construct: gene recF; 42 kDa monomer, 84 kDa dimer with ATP or ATPγS
Nature of the data set: isothermal titration calorimetry. The format is binding. The conditions noted are these: pH 7.0, 20 mM Tris-HCl, 200 mM NaCl, 25 °C; one-site model; signature motif mutant. A general note: ITC needs no label: the signal is the heat of the interaction.

Data set [2] has as its target T2, TTERecF (Caldanaerobacter subterraneus, UniProt Q8RDL3, K36A).
T2 construct: gene recF; 42 kDa monomer, 84 kDa dimer with ATP or ATPγS
Briefly: isothermal titration calorimetry. The format is binding.

Data set [3] has as its target T3, TTERecF (Caldanaerobacter subterraneus, UniProt Q8RDL3, S37A).
T3 construct: gene recF; 42 kDa monomer, 84 kDa dimer with ATP or ATPγS
Nature of the data set: isothermal titration calorimetry. The format is binding.

For data set [4], the target named is T4, TTERecF (Caldanaerobacter subterraneus, UniProt Q8RDL3).
T4 construct: gene recF; 42 kDa monomer, 84 kDa dimer with ATP or ATPγS
Briefly: isothermal titration calorimetry. It counts as binding.

The target in data set [5] is T5, TTERecF (Caldanaerobacter subterraneus, UniProt Q8RDL3, S283A).
T5 construct: gene recF; 42 kDa monomer, 84 kDa dimer with ATP or ATPγS
T5 sequence (Q8RDL3 whole entry S283A): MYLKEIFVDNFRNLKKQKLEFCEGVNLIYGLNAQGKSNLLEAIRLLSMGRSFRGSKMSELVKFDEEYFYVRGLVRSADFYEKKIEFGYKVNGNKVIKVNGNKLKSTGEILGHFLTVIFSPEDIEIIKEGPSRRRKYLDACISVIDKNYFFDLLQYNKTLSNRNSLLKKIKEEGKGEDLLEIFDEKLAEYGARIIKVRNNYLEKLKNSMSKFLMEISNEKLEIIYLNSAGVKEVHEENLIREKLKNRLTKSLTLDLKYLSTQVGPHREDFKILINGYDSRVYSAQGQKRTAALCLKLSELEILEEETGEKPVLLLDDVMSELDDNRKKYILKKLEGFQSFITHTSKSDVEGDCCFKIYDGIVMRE
Briefly: isothermal titration calorimetry. It counts as binding. The settings on record: pH 7.0, 20 mM Tris-HCl, 200 mM NaCl, 25 °C; one-site model; signature motif mutant.

The target of data set [6] is T6, TTERecF (Caldanaerobacter subterraneus, UniProt Q8RDL3, Q286A).
T6 construct: gene recF; 42 kDa monomer, 84 kDa dimer with ATP or ATPγS
T6 sequence (Q8RDL3 whole entry Q286A): as the sequence (Q8RDL3 whole entry S283A) above, with A283S, Q286A counted along it
Briefly: isothermal titration calorimetry. The settings on record: pH 7.0, 20 mM Tris-HCl, 200 mM NaCl, 25 °C; one-site model; signature motif mutant. The format is binding.

In data set [7] the target is T7, TTERecF (Caldanaerobacter subterraneus, UniProt Q8RDL3, G35A).
T7 construct: gene recF; 42 kDa monomer, 84 kDa dimer with ATP or ATPγS
T7 sequence (Q8RDL3 whole entry G35A): as the sequence (Q8RDL3 whole entry S283A) above, with G35A, A283S counted along it
Briefly: isothermal titration calorimetry. It counts as binding. The settings on record: pH 7.0, 20 mM Tris-HCl, 200 mM NaCl, 25 °C; one-site model; Walker A mutant.

The target of data set [8] is T8, TTERecF (Caldanaerobacter subterraneus, UniProt Q8RDL3, N38A).
T8 construct: gene recF; 42 kDa monomer, 84 kDa dimer with ATP or ATPγS
T8 sequence (Q8RDL3 whole entry N38A): as the sequence (Q8RDL3 whole entry S283A) above, with N38A, A283S counted along it
Briefly: isothermal titration calorimetry. The format is binding. The conditions noted are these: pH 7.0, 20 mM Tris-HCl, 200 mM NaCl, 25 °C; one-site model; Walker A mutant.

Data set [9] concerns the target T9, TTERecF-ATP dimer (Thermoanaerobacter tengcongensis MB4, UniProt Q8RDL3 1-364).
T9 sequence: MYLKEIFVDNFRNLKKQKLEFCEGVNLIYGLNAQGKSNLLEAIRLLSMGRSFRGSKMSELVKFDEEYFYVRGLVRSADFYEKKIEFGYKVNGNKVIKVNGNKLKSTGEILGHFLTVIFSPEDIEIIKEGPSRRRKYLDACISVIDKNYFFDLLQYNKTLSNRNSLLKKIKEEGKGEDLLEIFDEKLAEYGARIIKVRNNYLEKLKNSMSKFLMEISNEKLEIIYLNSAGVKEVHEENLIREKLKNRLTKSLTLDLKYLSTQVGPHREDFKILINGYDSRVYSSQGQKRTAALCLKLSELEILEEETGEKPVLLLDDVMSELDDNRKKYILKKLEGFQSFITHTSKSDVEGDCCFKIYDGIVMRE
Briefly: BLI; ATP (1 mM in preincubation); kd 1.44E-03 s-1; BLI: 20 mM Tris-HCl pH 7.0, 200 mM NaCl, 0.05% Tween 20, 25 C; biotinylated DNA on streptavidin sensors; no Mg2+ stated. The conditions noted are these: protein: recombinant; tags: N-terminal His6; chain copies: 2; label: 5' biotin. (In BLI a coated tip is dipped into the sample, and binding shifts an interference pattern.)

T1 sequence (Q8RDL3 whole entry S282A): as the sequence (Q8RDL3 whole entry S283A) above, with S282A, A283S counted along it
T3 sequence (Q8RDL3 whole entry S37A): as the sequence (Q8RDL3 whole entry S283A) above, with S37A, A283S counted along it
T2 sequence (Q8RDL3 whole entry K36A): as the sequence (Q8RDL3 whole entry S283A) above, with K36A, A283S counted along it

Turning to `Nc1ncnc2c1ncn2[C@@H]1O[C@H](COP(=O)(O)OP(=O)(O)OP(=O)(O)O)[C@@H](O)[C@H]1O` [ATP], the KD result in data set [1] is “conserved mutant residues S282A, S283A, and Q286A in signature motif was similar”; in [5], “conserved mutant residues S282A, S283A, and Q286A in signature motif was similar”; in [6] it was “conserved mutant residues S282A, S283A, and Q286A in signature motif was similar”. The figures for the Kd in [2], in data set [3] and in data set [4] were 38 ± 8.7 µM, 27 ± 7.9 µM and 1.3 µM, respectively. In addition, the hardly interacted result was “The mutants G35A and N38A hardly interacted with ATP” in data set [7]; “The mutants G35A and N38A hardly interacted with ATP” in data set [8].

As for `Nc1ncnc2c1ncn2[C@@H]1O[C@H](CO[P@](=O)(O)O[P@](=O)(O)O[P@@](=O)(O)S)[C@@H](O)[C@H]1O` [ATPɤS], in data set [4], the affinity, expressed as Kd, was 32 µM.

B1: 21mer ssDNA (ssDNA)
DNA: ACCTTATGGAAAGCATCGTAG
For B1, the Kd – broadly, the constant that tells how readily two partners part at equilibrium – in data set [9] was found to be 0.016 µM.
